Data from US12681006B2, “Methods of generating human endometrial stromal fibroblasts and three-dimensional multi-layered human endometrial tissue compositions” (Northwestern University, priority 2021, dated 2026).
Several values for one entry are separate records, joined by “and”; a condition that tells them apart may be missing. Equal values may be shown once.

Tests used:
Type in all cases: cell-based, human
[1] = test system: pluripotent stem cells (PSC); test: Differentiation of PSC to intermediate mesoderm with CHIR99021, marker expression by qPCR/ICC
Excerpt: Generation of ESF from pluripotent stem cells (PSC) involves sequential differentiation of the cells through a series of intermediate progenitor cells species (FIG. 6). The first step (FIG. 1a) requires the specification of intermediate mesoderm (IM), a common mesodermal progenitor for both nephric and reproductive tracts (Yucer et al., 2017). […] We observed high levels of mesodermal-specific Brachyury (TBXT) gene expression, and concurrent reduction of pluripotency markers OCT3/4 and SOX2 in 2 days (FIG. 1b, d). LHX1 and PAX2, two transcription factors expressed in the intermediate mesoderm (IM), also were detected at this time (FIG. 1c, d). […] At day 4 of differentiation, TBXT expression was decreased, LHX1 and PAX2 expression was either maintained or increased, and expression of anti-Müllerian hormone receptor 2 (AMHR2), a specific marker of Müllerian duct mesenchyme, increased (FIG. 1b, c, e).
(§1) Monolayer Cell Culture and Differentiation: Both embryonic (H7) and iPS (reprogrammed from Coriell fibroblast GM03651 by Sendai virus (ThermoFisher #A16517) following manufacturer's instruction) cells lines of female origin (XX) were used for differentiation as well as co-culture. Cells were cultured in mTeSR1 media (STEMCELL Technologies #85875) and on Corning Matrigel hESC-Qualified Matrix (Corning™ #354277) coated tissue culture plastic plates. Lot specific dilution factor volume provided by the manufacturer is diluted into 24 mL of cold DMEM/F12 (ThermoFisher Scientific #11320-082). To coat: 1 mL of this solution is applied to 1 well of a 6 well plate (9.6 cm^2) and incubated at RT for 1 hr or 37 C for 30 min. To differentiate, PSC were dissociated to single-cell level using Accutase (EMD Millipore #SCR005). Once at single cell level, equal volume mTeSR1 was added to stop dissociation and cells were pelleted at 0.2e3 rcf for 5 min. Supernatant was discarded and the remaining pellet of PSC was resuspended in mTeSR1 and 10 μM Y27632 (Reprocell #04-0012-02) and plated onto Corning Matrigel hESC-Qualified Matrix coated tissue culture plates at 3×10^5 per 3.8 cm^2 or equivalent density. Media is replaced with Differentiation Basal Media (Advanced RPMI 1640 (Gibco #12633020), 1× Gluatmax (Gibco #35050061) and […] CHIR99021 (STEMCELL Technologies #72054). After 4 days, the media is changed to Differentiation Basal Media containing 100 ng/mL recombinant Human WNT7A (R&D Systems #3008-WN-025). The final differentiation treatment media was Differentiation Basal Media with 10 ng/mL Recombinant Human BMP2 (R&D Systems #355-BM010), and 10 nM β-estradiol (E2, Millipore Sigma #E2758-250MG). While it varies by cell line, the expected yield at day 12 off differentiation when starting with 3×10^5 stem cells is 0.6×10^6-13.2×10^6 PSC-ESF.
(§2) qRT-PCR: RNA Isolation was performed using the RNAqueous-Micro Total RNA Isolation Kit (ThermoFisher Scientific #AM1931) following manufacturer's instructions. DNAse treatment and reverse transcription were performed using SuperScript IV VILO Master Mix with ezDNase Enzyme (ThermoFisher Scientific #11766050) following manufacturer's instructions. Quantitative PCR was performed using SYBR Green PCR Master Mix (ThermoFisher Scientific #4312704) using the QuantStudio 7. ESC and iPSC differentiated cells were used for analysis. A list of primers can be found in Table 1.
Immunocytochemistry: Monolayer cultures: cells cultured on Matrigel coated coverslips were washed with 1×DPBS (Corning #21031CV) before fixing the cells using 4% Formaldehyde solution (Millipore Sigma #P6148) for 20 min at room temperature. After 20 min, cells are washed 3 times with 1×DPBS. Prior to staining, cells were blocked for 1 hr at RT in PBS (Fisher Scientific #AM9625), 0.1% BSA (Millipore Sigma #A7906), 0.25% Triton-X (Millipore Sigma #T8787), and 10% Normal Goat Serum (Jackson Immuno Research #005-000-121). Primary Antibodies were diluted into the same buffer for incubation at 4° C. overnight. […]

Hedgehog signaling = test: Inhibition of Hedgehog signaling in PSC-ESF/EEO co-cultures with cyclopamine, qPCR
Protocol: FIG. 12a-FIG. 12d. […] Related to FIG. 5 a. Schematic of treatment paradigm for inhibition of Hedgehog signaling. Co-cultures were cultured in vehicle treatment media with either 10 uM cyclopamine (+) or vehicle (EtOH, −). After 48 h co-cultures were harvested for RNA and qPCR analysis. b. Gene expression of direct downstream mediators of IHH signaling: GLI1 and GLI2. […] (d12 v.−ns p-value=0.0953; −v.+ns p-value−v.+p-value=0.2661). c. […] (Lachman, A., 2010; ENCODE Project Consortium, 2011) d. Top 10 pathways enriched in decidualized co-cultured PSC-ESF over decidualized monolayer ESF as analyzed by the integrated Bioplanet 2019 platform. Both enrichment analyses done using Enrichr with a 2-fold cutoff ((http://amp.pharm.mssm.edu/Enrichr/).
BMP2, a member of the TGF B family, is necessary for decidualization (FIG. 5d). BMP2 in ESF can be activated by hormone treatments, such as P4 and cAMP, which directly increase BMP2 expression to mediate decidualization in hESF (Lee et al., 2007). In the mouse, stromal BMP2 is further amplified indirectly by P4 activated IHH from the luminal epithelium (Lee et al., 2007). Increased stromal BMP2 subsequently mediates decidualization by activating WNT (WNT4) signaling, FK506-binding proteins (FKBP5), and prostaglandin (PTGS1) (Li et al., 2013). To examine the hormone mediated activation of IHH signaling in co-cultured PSC-ESF, we analyzed expression of IHH and BMP signaling targets after decidualization. […] HOXA10, a mediator of stromal hormone response, was not increased by co-culture. However, it trended towards an increase after hormone treatment, though without statistical significance (FIG. 5e). Importantly, we observed that BMP2 and BMP2 signaling targets (WNT4, FKBP5, and PTGS1) also were increased in expression in response to co-culture, while BMP2, FKBP5, and PTGS1 were further increased by hormone treatment (FIG. 5e).
as §2

[2] = test system: PSC derived cells, day 4 of differentiation; test: WNT7A treatment day 4-8 to expand Müllerian duct mesenchyme (PSC-ESP), marker expression by qPCR/ICC
Protocol: To preferentially expand the Müllerian duct mesenchyme population, at day 4 we continued activating the WNT/B-catenin pathway with WNT7A (100 ng/ml) treatment from day 4-8. […] The Müllerian duct is patterned along the anterior-posterior axis to develop into the fallopian tubes (HOXA9), endometrium (HOXA10 and HOXA11), cervix (HOXA11), and vagina (HOXA13) (Du and Taylor, 2015). […] Immunocytochemical (ICC) analyses validated the qPCR results with increasing nuclear expression of the HOXA11 transcription factor from day 0 to day 8 (FIG. 1g). The expression of mesenchymal lineage markers platelet derived growth factor beta (PDGFRβ) and vimentin (VIM) supported specification to the stromal cell type (FIG. 1h). HOXA11 was confirmed to be co-expressed with mesenchymal markers AMHR2 and VIM (FIG. 1h, i). […] Further, 93.31+1.46% of the cells were Ki67^+, confirming that the cells at day 8 are in cell cycle (FIG. 1i, j). PSC-ESP at day 8 of differentiation could be frozen and thawed for subsequent differentiation, generating cells with appropriate proliferative properties and lineage-specific marker expression (FIG. 7f, g). In toto, these findings indicate that developmentally and regionally appropriate endometrial stromal progenitors, which we termed PSC-ESP, were generated at this point of the differentiation protocol.
as §1
as §2, with “1. […]” for “1.”

[3] = 10 uM cyclopamine, 48 h, vs vehicle (EtOH)
[4] = day 8, after CHIR99021 day 0-4 and WNT7A day 4-8, ICC

Cc1c[nH]c(-c2cnc(NCCNc3ccc(C#N)cn3)nc2-c2ccc(Cl)cc2Cl)n1 [CHIR99021]
LHX1 and PAX2 (intermediate mesoderm transcription factors) expression ([1]; 8 μM CHIR99021, day 2): detected | mesodermal-specific Brachyury (TBXT) gene expression ([1]; 8 μM CHIR99021, day 2 vs day 0, qPCR): high levels | expression of AMHR2, marker of Müllerian duct mesenchyme ([1]; 8 μM CHIR99021, day 4 of differentiation): increased | pluripotency markers OCT3/4 and SOX2 ([1]; 8 μM CHIR99021, in 2 days, qPCR/ICC): reduction | expression of endoderm and mesendoderm marker SOX17 ([1]; 8 μM CHIR99021, qPCR): low but significant increase | cell expansion of treated PSC ([1]; CHIR99021 treatment of PSC): rapid expansion of cells | LHX1 and PAX2 induction, comparison of concentrations of CHIR99021 ([1]; day 4, ESC, both concentrations of CHIR99021): highly, but differently induced

CC1=C2C[C@H]3[C@@H](CC=C4C[C@@H](O)CC[C@@]43C)[C@@H]2CC[C@]12O[C@@H]1C[C@H](C)CN[C@H]1[C@H]2C [cyclopamine]
GLI1 gene expression (Hedgehog signaling; [3]): significantly downregulated | GLI2 gene expression (Hedgehog signaling; [3]): similarly regulated without statistical significance | BMP2 expression (Hedgehog signaling; cyclopamine 48 hr, co-culture): trended towards a reduction | HOXA10 expression (Hedgehog signaling; cyclopamine 48 hr, co-culture): significant reduction | NR2F2 expression (Hedgehog signaling; cyclopamine 48 hr, co-culture): significant reduction

B1: WNT7A: recombinant Human WNT7A (R&D Systems), used as second Wnt/β-catenin agonist (protein, UniProt O00755 32-349, looked up)
Protein Wnt-7a: LGASIICNKIPGLAPRQRAICQSRPDAIIVIGEGSQMGLDECQFQFRNGRWNCSALGERTVFGKELKVGSREAAFTYAIIAAGVAHAITAACTQGNLSDCGCDKEKQGQYHRDEGWKWGGCSADIRYGIGFAKVFVDAREIKQNARTLMNLHNNEAGRKILEENMKLECKCHGVSGSCTTKTCWTTLPQFRELGYVLKDKYNEAVHVEPVRASRNKRPTFLKIKKPLSYRKPMDTDLVYIEKSPNYCEEDPVTGSVGTQGRACNKTAPQASGCDLMCCGRGYNTHQYARVWQCNCKFHWCCYVKCNTCSERTEMYTCK
expression of endometrium specific genes HOXA10 and HOXA11 ([2]; 100 ng/mL WNT7A day 4 to day 8, only in the 8 uM CHIR99021 condition): only induced high expression | Müllerian mesenchyme specific AMHR2 expression ([2]; 100 ng/ml WNT7A, day 4-8, qPCR): further induced | epithelium specific marker WNT7A expression ([2]; 100 ng/ml WNT7A, day 4-8, qPCR): did not induce | HOXA10 and HOXA11 expression ([2]; 100 ng/ml WNT7A, day 8 of differentiation, qPCR): significantly upregulated | HOXA9 (fallopian tube) and HOXA13 (vagina) expression ([2]; WNT7A day 4 through 8, d4 vs d8, qPCR): not significantly upregulated | DAPI+ cells expressing both AMHR2 and HOXA11 [2, 4]: 78.55+8.17% and 78.5% | DAPI+ cells positive for HOXA11 [2, 4]: 92.27+5.15% and 92.3% | cells Ki67+ [2, 4]: 93.31+1.46% and 93.3%
